From patent publication US12391706B2, “Multi-target tyrosine kinase inhibitor” (SHENZHEN NEPTUNUS PHARMACEUTICAL RESEARCH INSTITUTE CO., …, priority 2020, dated 2025)

Assays:
[1] = Solubility test (water), Chinese Pharmacopoeia 2015; type: physicochemical; conditions: 25° C.±2° C., dissolution within 30 minutes
Procedure: The series of compounds synthesized in Examples 1-24 were subjected to solubility test (water), according to the solubility test methods in Chinese Pharmacopoeia, 2015 Edition. The specific test operations and evaluation criteria are as follows: An appropriate amount (1 mg-10 mg) of finely powdered compound was weighed, placed in a certain volume of solvent at 25° C.±2° C., and shaken vigorously for 30 seconds every 5 minutes; the dissolution within 30 minutes was observed. It was considered completely dissolved if there were no visible particles or droplets of the solute. [table]

[2] = system: MKN-45 gastric cancer cells; test: Gastric cancer cell MKN45 xenograft model; type: in vivo, nude mice; conditions: oral 100 mg·kg^−1 once a day for 14 days
From the text: • 1. Compounds (td32-4, td32-4P3, td32-4P6, td32-4P9, td32-4P10) were selected for in vivo activity evaluation at a single concentration. The animal model was gastric cancer cell MKN45 xenograft model.
Test method: 5×10^6 MKN-45 gastric cancer cells were inoculated under the fat pad of the right rib of nude mice, and the tumor formation was observed. Two weeks after the inoculation, the tumor-bearing mice were divided into groups and orally administered with td32-4, td32-4P3, td32-4P6, td32-4P9, and td32-4P10 at a dose of 100 mg·kg^−1, once a day for 14 days, respectively. Tumor volumes were measured with a caliper and recorded.

| Compound | Water solubility test Result [1] | tumor inhibitory effect (tumor volume) [2] |
| --- | --- | --- |
| O=C(OCCn1cc(-c2cc3nccc(Oc4ccc(NC(=O)C5(C(=O)Nc6ccc(F)cc6)CC5)cc4F)c3s2)cn1)c1cccc(CN2CCCC2)c1 [td32-4P24] | D (1 g of solute is soluble in 30~100 mL of sovent) | – |
| O=C(Nc1ccc(F)cc1)C1(C(=O)Nc2ccc(Oc3ccnc4cc(-c5cnn(CCOP(=O)(O)O)c5)sc34)c(F)c2)CC1 [td32-4P2, 2-(4-(7-(2-fluoro-4-(1-((4-fluorophenyl)carbamoyl)cyclopropane-1-carboxamide)phenoxy)thieno[3,2-b]pyridin-2-yl)-1H-pyrazolyl-1-yl)ethyl phosphate] | F (1 g of solute is soluble in 1000~10000 mL of sovent) | – |
| O=C(OCCn1cc(-c2cc3nccc(Oc4ccc(NC(=O)C5(C(=O)Nc6ccc(F)cc6)CC5)cc4F)c3s2)cn1)C1CCCN1 (centres unmarked) [td32-4P13, 2-(4-(7-(2-fluoro-4-(1-((4-fluorophenyl)carbamoyl)cyclopropane-1-carboxamide)phenoxy)thieno[3,2-b]pyridin-2-yl)-1H-pyrazolyl-1-yl)ethyl prolinate] | E (1 g of solute is soluble in 100~1000 mL of sovent) | – |
| NC(=O)CC(N)C(=O)OCCn1cc(-c2cc3nccc(Oc4ccc(NC(=O)C5(C(=O)Nc6ccc(F)cc6)CC5)cc4F)c3s2)cn1 (centres unmarked) [td32-4P14, 2-(4-(7-(2-fluoro-4-(1-((4-fluorophenyl)carbamoyl)cyclopropane-1-carboxamide)phenoxy)thieno[3,2-b]pyridin-2-yl)-1H-pyrazolyl-1-yl)ethyl asparaginate] | D (1 g of solute is soluble in 30~100 mL of sovent) | – |
| O=C(OCCn1cc(-c2cc3nccc(Oc4ccc(NC(=O)C5(C(=O)Nc6ccc(F)cc6)CC5)cc4F)c3s2)cn1)c1cccc(CN2CCOCC2)c1 [td32-4P20, 2-(4-(7-(2-fluoro-4-(1-((4-fluorophenyl)carbamoyl)cyclopropane-1-carboxamide)phenoxy)thieno[3,2-b]pyridin-2-yl)-1H-pyrazolyl-1-yl)ethyl 3-(morpholinylmethyl) benzoate] | F (1 g of solute is soluble in 1000~10000 mL of sovent) | – |
| CC(C)CC(N)C(=O)OCCn1cc(-c2cc3nccc(Oc4ccc(NC(=O)C5(C(=O)Nc6ccc(F)cc6)CC5)cc4F)c3s2)cn1 (centres unmarked) [td32-4P8, 2-(4-(7-(2-fluoro-4-(1-((4-fluorophenyl)carbamoyl)cyclopropane-1-carboxamide)phenoxy)thieno[3,2-b]pyridin-2-yl)-1H-pyrazolyl-1-yl)ethyl leucinate] | E (1 g of solute is soluble in 100~1000 mL of sovent) | – |
| CCN(CC)CC(=O)OCCn1cc(-c2cc3nccc(Oc4ccc(NC(=O)C5(C(=O)Nc6ccc(F)cc6)CC5)cc4F)c3s2)cn1 [td32-4P4, 2-(4-(7-(2-fluoro-4-(1-((4-fluorophenyl)carbamoyl)cyclopropane-1-carboxamide)phenoxy)thieno[3,2-b]pyridin-2-yl)-1H-pyrazolyl-1-yl)ethyldiethyl glycinate] | C (1 g of solute is soluble in 10~30 mL of sovent) | – |
| CC(C(=O)OCCn1cc(-c2cc3nccc(Oc4ccc(NC(=O)C5(C(=O)Nc6ccc(F)cc6)CC5)cc4F)c3s2)cn1)N(C)C (centres unmarked) [td32-4P18, 2-(4-(7-(2-fluoro-4-(1-((4-fluorophenyl)carbamoyl)cyclopropane-1-carboxamide)phenoxy)thieno[3,2-b]pyridin-2-yl)-1H-pyrazolyl-1-yl)ethyl N,N-dimethyl alaninate] | D (1 g of solute is soluble in 30~100 mL of sovent) | – |
| CN1CCN(Cc2ccc(C(=O)OCCn3cc(-c4cc5nccc(Oc6ccc(NC(=O)C7(C(=O)Nc8ccc(F)cc8)CC7)cc6F)c5s4)cn3)cc2)CC1 [td32-4P21, 2-(4-(7-(2-fluoro-4-(1-((4-fluorophenyl)carbamoyl)cyclopropane-1-carboxamide)phenoxy)thieno[3,2-b]pyridin-2-yl)-1H-pyrazol-1-yl)ethyl 4-((methylpiperazin-1-yl)methyl) benzoate] | D (1 g of solute is soluble in 30~100 mL of sovent) | – |
| O=C(CN1CCOCC1)OCCn1cc(-c2cc3nccc(Oc4ccc(NC(=O)C5(C(=O)Nc6ccc(F)cc6)CC5)cc4F)c3s2)cn1 [td32-4P5, 2-(4-(7-(2-fluoro-4-(1-((4-fluorophenyl)carbamoyl)cyclopropane-1-carboxamide)phenoxy)thieno[3,2-b]pyridin-2-yl)-1H-pyrazolyl-1-yl)ethyl 2-morpholine acetate] | C (1 g of solute is soluble in 10~30 mL of sovent) | – |
| CSCCC(N)C(=O)OCCn1cc(-c2cc3nccc(Oc4ccc(NC(=O)C5(C(=O)Nc6ccc(F)cc6)CC5)cc4F)c3s2)cn1 (centres unmarked) [td32-4P11, 2-(4-(7-(2-fluoro-4-(1-((4-fluorophenyl)carbamoyl)cyclopropane-1-carboxamide)phenoxy)thieno[3,2-b]pyridin-2-yl)-1H-pyrazolyl-1-yl)ethyl methioninate] | E (1 g of solute is soluble in 100~1000 mL of sovent) | – |
| CCC(C)C(N)C(=O)OCCn1cc(-c2cc3nccc(Oc4ccc(NC(=O)C5(C(=O)Nc6ccc(F)cc6)CC5)cc4F)c3s2)cn1 (centres unmarked) [td32-4P9, 2-(4-(7-(2-fluoro-4-(1-(4-fluorophenyl)carbamoyl)cyclopropane-1-carboxamide)phenoxy)thieno[3,2-b]pyridin-2-yl)-1H-pyrazolyl-1-yl)ethyl isoleucinate] | D (1 g of solute is soluble in 30~100 mL of sovent) | potent tumor inhibitory effect |
| O=C(OCCn1cc(-c2cc3nccc(Oc4ccc(NC(=O)C5(C(=O)Nc6ccc(F)cc6)CC5)cc4F)c3s2)cn1)c1ccc(CN2CCCC2)cc1 [td32-4P23] | D (1 g of solute is soluble in 30~100 mL of sovent) | – |
| NC(Cc1ccccc1)C(=O)OCCn1cc(-c2cc3nccc(Oc4ccc(NC(=O)C5(C(=O)Nc6ccc(F)cc6)CC5)cc4F)c3s2)cn1 [td32-4P12, 2-(4-(7-(2-fluoro-4-(1-((4-fluorophenyl)carbamoyl)cyclopropane-1-carboxamide)phenoxy)thieno[3,2-b]pyridin-2-yl)-1H-pyrazolyl-1-yl)ethyl L-phenylalaninate] | F (1 g of solute is soluble in 1000~10000 mL of sovent) | – |
| CN1CCN(Cc2cccc(C(=O)OCCn3cc(-c4cc5nccc(Oc6ccc(NC(=O)C7(C(=O)Nc8ccc(F)cc8)CC7)cc6F)c5s4)cn3)c2)CC1 [td32-4P22, 2-(4-(7-(2-fluoro-4-(1-((4-fluorophenyl)carbamoyl)cyclopropane-1-carboxamide)phenoxy)thieno[3,2-b]pyridin-2-yl)-1H-pyrazolyl-1-yl)ethyl 3-((methylpiperazin-1-yl)methyl) benzoate] | D (1 g of solute is soluble in 30~100 mL of sovent) | – |
| O=C(OCCn1cc(-c2cc3nccc(Oc4ccc(NC(=O)C5(C(=O)Nc6ccc(F)cc6)CC5)cc4F)c3s2)cn1)c1ccc(CN2CCOCC2)cc1 [td32-4P19, 2-(4-(7-(2-fluoro-4-(1-((4-fluorophenyl)carbamoyl)cyclopropane-1-carboxamide)phenoxy)thieno[3,2-b]pyridin-2-yl)-1H-pyrazolyl-1-yl)ethyl 4-(morpholinylmethyl) benzoate] | F (1 g of solute is soluble in 1000~10000 mL of sovent) | – |
| COC(CNCC(=O)OCCn1cc(-c2cc3nccc(Oc4ccc(NC(=O)C5(C(=O)Nc6ccc(F)cc6)CC5)cc4F)c3s2)cn1)OC [td32-4P17, 2-(4-(7-(2-fluoro-4-(1-((4-fluorophenyl)carbamoyl)cyclopropane-1-carboxamide)phenoxy)thieno[3,2-b]pyridin-2-yl)-1H-pyrazolyl-1-yl)ethyl(2,2-dimethoxyethyl) glycinate] | E (1 g of solute is soluble in 100~1000 mL of sovent) | – |
| NC(=O)CCC(N)C(=O)OCCn1cc(-c2cc3nccc(Oc4ccc(NC(=O)C5(C(=O)Nc6ccc(F)cc6)CC5)cc4F)c3s2)cn1 (centres unmarked) [td32-4P15, 2-(4-(7-(2-fluoro-4-(1-((4-fluorophenyl)carbamoyl)cyclopropane-1-carboxamide)phenoxy)thieno[3,2-b]pyridin-2-yl)-1H-pyrazolyl-1-yl)ethyl glutaminate] | D (1 g of solute is soluble in 30~100 mL of sovent) | – |
| NCC(=O)OCCn1cc(-c2cc3nccc(Oc4ccc(NC(=O)C5(C(=O)Nc6ccc(F)cc6)CC5)cc4F)c3s2)cn1 [td32-4P6, 2-(4-(7-(2-fluoro-4-(1-((4-fluorophenyl)carbamoyl)cyclopropane-1-carboxamide)phenoxy)thieno[3,2-b]pyridin-2-yl)-1H-pyrazolyl-1-yl)ethyl glycinate] | C (1 g of solute is soluble in 10~30 mL of sovent) | moderate inhibitory activity |
| O=C(O)CCC(=O)OCCn1cc(-c2cc3nccc(Oc4ccc(NC(=O)C5(C(=O)Nc6ccc(F)cc6)CC5)cc4F)c3s2)cn1 [td32-4P1, 4-(2-(4-(7-(2-fluoro-4-(1-((4-fluorophenyl)carbamoyl)cyclopropane-1-carboxamide)phenoxy)thieno[3,2-b]pyridin-2-yl)-1H-pyrazolyl-1-yl)ethoxy)-4-oxobutyric acid] | F (1 g of solute is soluble in 1000~10000 mL of sovent) | – |
| CC(N)C(=O)OCCn1cc(-c2cc3nccc(Oc4ccc(NC(=O)C5(C(=O)Nc6ccc(F)cc6)CC5)cc4F)c3s2)cn1 (centres unmarked) [td32-4P7, 2-(4-(7-(2-fluoro-4-(1-((4-fluorophenyl)carbamoyl)cyclopropane-1-carboxamide)phenoxy)thieno[3,2-b]pyridin-2-yl)-1H-pyrazolyl-1-yl)ethyl alaninate] | D (1 g of solute is soluble in 30~100 mL of sovent) | – |
